Source: patent publication US20230091047A1 (priority 2019, published 2023)
Like-named read-outs stand apart in the source and are kept apart here.

Tests used:
[1] = tested on: HBV (HepG2.117 cell line, inducibly HBV producing); test: Anti-HBV activity: intracellular HBV DNA by real-time PCR in HepG2.117 cells after 3 days of treatment; type: cell-based, hepatitis B virus
Method in brief: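 Inducible HBV-producing HepG2.117 line (Tet-off); 3-day exposure to serially diluted compound after induction; real-time PCR of intracellular viral DNA.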

HepG2 cells = test: in vitro; type: cell-based; conditions: HepG2 or HepG2.117 cells, ATPlite, mean value, read-out: CC50 (μM, mean value)
Method in brief: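 Luminescent ATP quantitation served as the viability endpoint following a 3- or 4-day incubation with test compounds.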

[2] = HepG2.117 cells, 3 days of treatment, intracellular HBV DNA by real-time PCR; mean value; read-out: EC50 (μM, mean value)
[3] = 3-days incubation (unmarked values)
[4] = HepG2.117 cells, intracellular HBV DNA by real-time PCR, 3 days of treatment, mean value; read-out: EC50 (μM, mean value)
[5] = 3-days incubation (not marked with *)

Q: For Cc1cc(-n2cccn2)ccc1-n1c(NC(C)C)nc2c(c1=O)C[C@@H](C)N(C(=O)c1ccc(Cl)c(Cl)c1)C2 (atropisomer, axis not shown) [Compound C308a, (6R)-7-(3,4-dichlorobenzoyl)-6-methyl-3-[2-methyl-4-(1H-pyrazol-1-yl)phenyl]-2-[(propan-2-yl)amino]-5,6,7,8-tetrahydropyrido[3,4-d]pyrimidin-4(3H)-one], which EC50 [1, 2] is on record?
A: 0.11 µM

Q: And the CC50 (HepG2 cells; [3])?
A: > 50 µM

Q: Which EC50 [1, 4] does the source give for CC(C)Nc1nc2c(c(=O)n1-c1ccc(C(=O)NC3CC3)cc1Cl)C[C@@H](C)N(C(=O)c1ccc(Cl)c(C(F)(F)F)c1)C2 (single isomer, unassigned) [Compound C673b] here?
A: 0.03 µM

Q: And the CC50 (HepG2 cells; [5])?
A: > 50 µM

Q: For CNC(=O)c1cnc(-n2c(N[C@@H](C)c3ccc(OC(F)(F)F)cc3)nc3c(c2=O)C[C@@H](C)N(C(=O)c2ccc(Cl)c(Cl)c2)C3)cn1 [Compound C617], which EC50 [1, 4] is on record?
A: 0.08 µM

Q: What about the CC50 (HepG2 cells; [5]) of the same compound?
A: > 50 µM

Q: Which results are given for COc1ccc(CNc2nc3c(c(=O)n2-c2ccccc2OC)C[C@H](C)N(C(=O)c2ccc(Cl)c(Cl)c2)C3)cc1 (single isomer, unassigned) [Compound C36Bb]?
A: EC50 [1, 2]: > 50 µM; CC50 (HepG2 cells; [3]): > 50 µM

Q: For CNC(=O)c1ccc(-n2c(OC(C)C)nc3c(c2=O)C[C@@H](C)N(C(=O)c2ccc(Cl)c(Cl)c2)C3)c(Cl)c1 [Compound C403b], which EC50 [1, 4] is on record?
A: 0.08 µM

Q: What about the CC50 (HepG2 cells; [5]) of the same compound?
A: 31.1 µM

Q: Which results are given for COc1cc(C(=O)NC2CC2)ccc1-n1c(NC(C)C)nc2c(c1=O)C[C@@H](C)N(C(=O)c1ccc(Cl)c(C(F)(F)F)c1)C2 (single isomer, unassigned) [Compound C678b]?
A: EC50 [1, 4]: 0.04 µM; CC50 (HepG2 cells; [5]): 44.1 µM

Q: Which results are given for CNC(=O)c1ccc(-n2c(N[C@H]3C[C@@H]3c3ccc(OC)cc3)nc3c(c2=O)C[C@@H](C)N(C(=O)c2ccc(Cl)c(Cl)c2)C3)cc1 [Compound C452b]?
A: EC50 [1, 4]: > 10 µM; CC50 (HepG2 cells; [5]): > 50 µM

Q: What does the source list for COc1ccccc1-n1c(N[C@@H](C)CO)nc2c(c1=O)CCN(C(=O)c1ccc(Cl)c(Cl)c1)C2 (single isomer, unassigned) [Compound C62Bb, 7-(3,4-dichlorobenzoyl)-2-{[(2*S)-1-hydroxypropan-2-yl]amino}-3-(2-methoxyphenyl)-5,6,7,8-tetrahydropyrido[3,4-d]pyrimidin-4(3H)-one]?
A: EC50 [1, 2]: 6.6 µM; CC50 (HepG2 cells; [3]): > 50 µM
